Experimental data as given in US5250562A, “Stilbene derivatives” (Hoffmann-La Roche Inc., priority 1988, dated 1993).

Test system: chemically induced mammary tumours
Assay: activity against chemically induced (oral administration of dimethylbenzanthracene) mammary tumours in rats
Assay type: in vivo
Details: for Increase or decrease in the average number of tumours per rat: control group +242; for Increase or decrease in the average tumour volume per rat in mm^3: control group +714
Excerpt: The biological activity of the compounds in accordance with the invention can be determined e.g. using the test procedures described in German Offenlegungsschrift 3 715 955.

SMILES: C/C(=C\c1ccc(OCCN2CCOCC2)cc1)c1ccc2c(c1)C(C)(C)CCC2(C)C [4-[2-[p-[(E)-2-(5,6,7,8-tetrahydro-5,5,8,8-tetramethyl-2-naphthyl)propenyl]phenoxy]ethyl]morpholine]
- Rats with tumours (50 mg/kg/day p.o.): 100 % of controls
- Increase or decrease in the average number of tumours per rat (50 mg/kg/day p.o.): +91
- Increase or decrease in the average tumour volume per rat in mm^3 (50 mg/kg/day p.o.): +550 mm^3
- Rats with tumours (100 mg/kg/day p.o.): 50 % of controls
- Increase or decrease in the average number of tumours per rat (100 mg/kg/day p.o.): -73
- Increase or decrease in the average tumour volume per rat in mm^3 (100 mg/kg/day p.o.): -77 mm^3
- Rats with tumours (200 mg/kg/day p.o.): 10 % of controls
- Increase or decrease in the average number of tumours per rat (200 mg/kg/day p.o.): -96
- Increase or decrease in the average tumour volume per rat in mm^3 (200 mg/kg/day p.o.): -99 mm^3
